Measurements reported in patent US20210169959A1, “TERMINALIA FERDINANDIANA EXTRACT AND PRODUCTS CONTAINING EXTRACT OF TERMINALIA FERDINANDIANA FOR ANTIMICROBIAL OR ANTIBACTERIAL APPLICATIONS” (RISING PHOENIX INDUSTRIES PTY LTD, priority 2017, published 2021).
Values after ≈ are worked out from the molar mass of the structure shown. Values joined by “and” are separate entries in the source; they are usually repeats but may differ in a detail not shown here. Identical values can stand only once. Like-named read-outs stand apart in the source and are kept apart here.

How the values were obtained:
[1] = test system: Giardia duodenalis trophozoites, sheep S2 strain; assay: G. duodenalis trophozoite proliferation, sheep S2 strain; conditions: for IC50 / IC50 Single Compound: compound alone; for Class of Interaction / ΣFIC50: in combination with ascorbic acid
[2] = test system: Giardia duodenalis trophozoites; assay: G. duodenalis trophozoite proliferation (strain not specified or several strains together); type: cell-based; conditions: for inhibition at 300 µg/mL: Giardia duodenalis; for inhibition at 300 µg/mL / inhibition of trophozoite proliferation: pure compounds at 300 μg/mL; for IC50: compound alone, over the different strains
[3] = test system: Giardia duodenalis trophozoites, ATCC PRA-251; assay: G. duodenalis trophozoite proliferation, ATCC PRA-251 (metronidazole resistant); conditions: for IC50: read-out: IC50 Single Compound; for inhibition of the metronidazole resistant strain (in words): pure compounds at 300 μg/mL; for Class of Interaction / ΣFIC50: in combination with ascorbic acid
[4] = test system: Giardia duodenalis trophozoites, ATCC203333; assay: G. duodenalis trophozoite proliferation, ATCC203333 (metronidazole sensitive); conditions: for Class of Interaction / ΣFIC50: in combination with ascorbic acid
Artemia nauplii = conditions: for Toxicity Compound Alone ALA: 24 hours exposure; for Toxicity Compound/ascorbic acid combination ALA: in combination with ascorbic acid
human dermal fibroblast = conditions: for Toxicity Compound/ascorbic acid combination HDF: in combination with ascorbic acid
Clostridium perfringens = assay: microbe, parasite or virus in culture; type: cell-based; conditions: Clostridium perfringens, read-out: zones of inhibition
Bacillus anthracis = assay: microbe, parasite or virus in culture; type: cell-based; conditions: Bacillus anthracis, read-out: zones of inhibition
[5] = test system: Artemia franciscana nauplii; conditions: in vivo
[6] = Giardia duodenalis, in Ovis aries, read-out: IC50 Single Compound, Sheep S2 Strain
[7] = metronidazole sensitive G. duodenalis strain
[8] = Giardia duodenalis, ATCC203333, read-out: IC50 Single Compound
[9] = read-out: IC50 Single Compound, Sheep S2 Strain
[10] = all three G. duodenalis strains
[11] = read-out: IC50 Single Compound, ATCC203333, compound alone
[12] = compound alone, 24 hours exposure

O=C1O[C@H]([C@@H](O)CO)C(O)=C1O [Ascorbic acid, ascorbic acid]
IC50 [1, 6]: 1870 µg/mL and 10.6 mM
inhibition at 300 µg/mL [2, 7]: ~15%
IC50 ([3]; Giardia duodenalis): 2850 µg/mL and 16.2 mM
inhibition of the metronidazole resistant strain (in words) [3]: ineffective inhibitors
IC50 [4, 8]: 1910 µg/mL and 10.8 mM

O=C(O)C[C@H](C(=O)O)[C@H]1c2c(cc(O)c(O)c2O)C(=O)O[C@@H]1C(=O)O [Chebulic acid, chebulic acid]
IC50 Single Compound ([1]; Sheep S2 Strain): 1283 µg/mL (≈ 3.6 mM)
Class of Interaction ([1]; Sheep S2 Strain): Additive
ΣFIC50 ([1]; Sheep S2 Strain): 0.56
IC50 [1, 9]: 3.6 mM
inhibition of trophozoite proliferation [2, 10]: ~40%
Toxicity Compound Alone ALA (Artemia nauplii): 165 µg/mL
Toxicity Compound/ascorbic acid combination ALA (Artemia nauplii): 224 µg/mL
IC50 Single Compound ([3]; ATCC PRA-251, compound alone): 1220 µg/mL (≈ 3.42 mM)
Class of Interaction ([3]; ATCC PRA-251): Additive
ΣFIC50 ([3]; ATCC PRA-251): 0.52
IC50 ([3]; ATCC PRA-251, compound alone): 3.42 mM
IC50 Single Compound ([4]; ATCC203333, compound alone): 985 µg/mL (≈ 2.76 mM)
Class of Interaction ([4]; ATCC203333): Additive
ΣFIC50 ([4]; ATCC203333): 0.6
IC50 [4, 11]: 2.76 mM
Toxicity Compound Alone HDF (human dermal fibroblast; [12]): 380 µg/mL
Toxicity Compound/ascorbic acid combination HDF (human dermal fibroblast): 375 µg/mL

O=C(O)[C@H]1O[C@@H](Oc2cccc(O)c2O)[C@H](O)[C@@H](O)[C@@H]1O [DPGA, 2,3-dihydroxyphenyl B-D-glucopyranosiduronic acid]
IC50 Single Compound ([1]; Sheep S2 Strain): 47 µg/mL (≈ 0.156 mM)
Class of Interaction ([1]; Sheep S2 Strain): Synergy
ΣFIC50 ([1]; Sheep S2 Strain): 0.11
IC50 [1, 9]: 0.156 mM
ratios producing synergistic inhibition (isobologram) ([2]; DPGA:ascorbic acid combinations, metronidazole sensitive strains): ≤ 60 % DPGA
IC50 as share of the IC50 of ascorbic acid ([2]; components tested separately): approximately 5%
potency relative to ascorbic acid ([2]; components tested separately): ~20 times
IC50 [2]: 38 to 72 µg/mL
IC50 ([2]; read-out: IC50): ≥ 0.126 mM and 0.126 to 0.238 mM
inhibition of trophozoite proliferation [2, 10]: 100%
Toxicity Compound Alone ALA (Artemia nauplii): CND
Toxicity Compound/ascorbic acid combination ALA (Artemia nauplii): >500 µg/mL
IC50 Single Compound ([3]; ATCC PRA-251, compound alone): 72 µg/mL (≈ 0.238 mM)
Class of Interaction ([3]; ATCC PRA-251): Synergy
ΣFIC50 ([3]; ATCC PRA-251): 0.18
ratios with synergistic interaction (isobologram) ([3]; DPGA:ascorbic acid combinations, metronidazole resistant strain): 30-50 % DPGA
IC50 ([3]; ATCC PRA-251, compound alone): 0.238 mM
IC50 Single Compound ([4]; ATCC203333, compound alone): 38 µg/mL (≈ 0.126 mM)
Class of Interaction ([4]; ATCC203333): Synergy
ΣFIC50 ([4]; ATCC203333): 0.18
IC50 [4, 11]: 0.126 mM
Toxicity Compound Alone HDF (human dermal fibroblast; [12]): CND
Toxicity Compound/ascorbic acid combination HDF (human dermal fibroblast): >500 µg/mL

O=C(O)c1cc(O)c(O)c(O)c1 [Gallic acid, gallic acid]
IC50 [1, 6]: 1150 µg/mL and 6.79 mM
IC50 Single Compound ([1]; Sheep S2 Strain): 1156 µg/mL (≈ 6.8 mM)
Class of Interaction ([1]; Sheep S2 Strain): Synergy
ΣFIC50 ([1]; Sheep S2 Strain): 0.15
inhibition at 300 µg/mL [2, 10]: ~50%
ratios inducing synergistic responses (isobologram) ([2]; gallic acid:ascorbic acid combinations, all three strains): 30-60 % gallic acid
Toxicity Compound Alone ALA (Artemia nauplii): 132 µg/mL
Toxicity Compound/ascorbic acid combination ALA (Artemia nauplii): 147 µg/mL
Class of Interaction ([3]; ATCC PRA-251): Synergy
ΣFIC50 ([3]; ATCC PRA-251): 0.32
IC50 ([3]; Giardia duodenalis): 1260 µg/mL and 7.38 mM
Class of Interaction ([4]; ATCC203333): Synergy
ΣFIC50 ([4]; ATCC203333): 0.38
IC50 [4, 8]: 1370 µg/mL and 8.04 mM
Toxicity Compound Alone HDF (human dermal fibroblast; human, 24 h): 320 µg/mL

O=C1O[C@@H]([C@H](O)[C@H](O)CO)[C@@H](O)[C@H]1O [Glucohepatonic acid lactone, glucohepatonic acid-1,4-lactone]
IC50 Single Compound ([1]; Sheep S2 Strain): 1746 µg/mL (≈ 8.39 mM)
Class of Interaction ([1]; Sheep S2 Strain): independent (independent (ΣFIC50 > 1.0-4.0))
ΣFIC50 ([1]; Sheep S2 Strain): 1.19
IC50 [1, 9]: 9.91 mM
inhibition of trophozoite proliferation [2, 7]: ~30%
Toxicity Compound Alone ALA (Artemia nauplii): CND
Toxicity Compound/ascorbic acid combination ALA (Artemia nauplii): >500 µg/mL
IC50 Single Compound ([3]; ATCC PRA-251, compound alone): 3536 µg/mL (≈ 17 mM)
Class of Interaction ([3]; ATCC PRA-251): Independent
ΣFIC50 ([3]; ATCC PRA-251): 1.25
inhibition of the metronidazole resistant strain (in words) [3]: ineffective inhibitors
IC50 ([3]; ATCC PRA-251, compound alone): 20.1 mM
IC50 Single Compound ([4]; ATCC203333, compound alone): 2255 µg/mL (≈ 10.8 mM)
Class of Interaction ([4]; ATCC203333): Independent
ΣFIC50 ([4]; ATCC203333): 1.57
IC50 [4, 11]: 12.8 mM
Toxicity Compound Alone HDF (human dermal fibroblast; [12]): CND
Toxicity Compound/ascorbic acid combination HDF (human dermal fibroblast): >500 µg/mL

O=C1O[C@H](CO)[C@@H](O)[C@H](O)[C@H]1O [Gluconolactone, gluconolactone]
inhibition of trophozoite proliferation [2, 10]: did not significantly affect the growth
Toxicity Compound Alone ALA (Artemia nauplii): CND
Toxicity Compound Alone HDF (human dermal fibroblast): CND

Cc1cc(OCCCC(C)(C)C(=O)O)c(C)cc1O [HMDP, 5-(4-hydroxy-2,5-dimethylphenoxy)-2,2-dimethyl-pentanoic acid]
IC50 [1, 6]: 1840 µg/mL and 6.89 mM
Class of Interaction ([1]; Sheep S2 Strain): Additive
ΣFIC50 ([1]; Sheep S2 Strain): 0.69
inhibition at 300 µg/mL [2, 10]: ~20%
Toxicity Compound Alone ALA (Artemia nauplii): CND
Toxicity Compound/ascorbic acid combination ALA (Artemia nauplii): >500 µg/mL
Class of Interaction ([3]; ATCC PRA-251): Independent
ΣFIC50 ([3]; ATCC PRA-251): 1.1
IC50 ([3]; Giardia duodenalis): 2030 µg/mL and 7.63 mM
Class of Interaction ([4]; ATCC203333): Additive
ΣFIC50 ([4]; ATCC203333): 0.81
IC50 [4, 8]: 1580 µg/mL and 5.96 mM
Toxicity Compound Alone HDF (human dermal fibroblast; [12]): CND
Toxicity Compound/ascorbic acid combination HDF (human dermal fibroblast): >500 µg/mL

c1ncc2[nH]cnc2n1 [Purine, purine]
inhibition of trophozoite proliferation [2, 10]: did not significantly affect the growth
Toxicity Compound Alone ALA (Artemia nauplii): CND
Toxicity Compound Alone HDF (human dermal fibroblast): CND

O=C(O)[C@]1(O)C[C@@H](O)[C@@H](O)[C@H](O)C1 [Quinic acid, quinic acid]
IC50 [1, 6]: 1170 µg/mL and 6.1 mM
Class of Interaction ([1]; Sheep S2 Strain): Additive
ΣFIC50 ([1]; Sheep S2 Strain): 0.51
inhibition at 300 µg/mL [2, 10]: ~30%
Toxicity Compound Alone ALA (Artemia nauplii): CND
Toxicity Compound/ascorbic acid combination ALA (Artemia nauplii): >500 µg/mL
Class of Interaction ([3]; ATCC PRA-251): Additive
ΣFIC50 ([3]; ATCC PRA-251): 0.95
IC50 ([3]; Giardia duodenalis): 1760 µg/mL and 9.13 mM
Class of Interaction ([4]; ATCC203333): Additive
ΣFIC50 ([4]; ATCC203333): 0.73
IC50 [4, 8]: 1430 µg/mL and 7.43 mM
Toxicity Compound Alone HDF (human dermal fibroblast): CND

O=C1O[C@H](CO)[C@@H](O)[C@H]1O [Ribolactone, ribonolactone]
inhibition of trophozoite proliferation [2, 10]: did not significantly affect the growth
Toxicity Compound Alone ALA (Artemia nauplii): CND
Toxicity Compound Alone HDF (human dermal fibroblast; [12]): CND

CC1(C)S[C@@H]2[C@H](NC(=O)[C@H](N)c3ccccc3)C(=O)N2[C@H]1C(=O)O [ampicillin]
zone of inhibition at 10 µg/disc (Clostridium perfringens): 13 ± 1 mm
zone of inhibition at 10 µg/disc (Bacillus anthracis): 10 ± 0.7 mm

[K+].[K+].[O]=[Cr](=[O])([O-])[O][Cr](=[O])(=[O])[O-] [potassium dichromate, Potassium dichromate, reference compound]
Toxicity Compound Alone ALA (Artemia nauplii): 37 µg/mL
mortality [5]: 100%
onset of nauplii death (time of exposure) [5]: ≤ 3 h
Toxicity Compound Alone HDF (human dermal fibroblast; [12]): 42 µg/mL

eujavonic acid
IC50 Single Compound ([1]; Sheep S2 Strain): 1438 µg/mL
Class of Interaction ([1]; Sheep S2 Strain): Additive
ΣFIC50 ([1]; Sheep S2 Strain): 0.58
IC50 [1, 9]: 6.04 mM
inhibition of trophozoite proliferation [2, 10]: ~20%
Toxicity Compound Alone ALA (Artemia nauplii): CND
Toxicity Compound/ascorbic acid combination ALA (Artemia nauplii): >500 µg/mL
IC50 Single Compound ([3]; ATCC PRA-251, compound alone): 1850 µg/mL
Class of Interaction ([3]; ATCC PRA-251): Additive
ΣFIC50 ([3]; ATCC PRA-251): 0.72
IC50 ([3]; ATCC PRA-251, compound alone): 7.77 mM
IC50 Single Compound ([4]; ATCC203333, compound alone): 1683 µg/mL
Class of Interaction ([4]; ATCC203333): Additive
ΣFIC50 ([4]; ATCC203333): 0.64
IC50 [4, 11]: 7.07 mM
Toxicity Compound Alone HDF (human dermal fibroblast; [12]): CND
Toxicity Compound/ascorbic acid combination HDF (human dermal fibroblast): >500 µg/mL
